What all share (assay type): in vivo
One data set has as its system transplanted rice plant. Put plainly: Test Example 1: effect on crop, application before weed generation in submerged conditions (symbol a). As to conditions: application herbicide amount 320 g/ha. The gist of the method:
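Rice at 2.5 leaf stage transplanted into submerged soil (4 cm depth) sown with three weed species; herbicide applied before weed emergence.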

The test system of data set [1] is Echinochloa oryzacola Vasing. Put plainly: Test Example 2: herbicidal activity, application during weed generation in submerged conditions (symbol A). The conditions noted are these: Table 23; application herbicide amount 320 g/ha; grade 0-5 by criteria of Test Example 1. The gist of the method:
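Each pot contained alluvial soil under 4 cm of water with seeds of all three weeds sown together. Following growth at 25° C. to 30° C. to the one- to two-leaf stage, the floodwater received diluted emulsion at a predetermined amount; visual assessment followed at 3 weeks.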

Another data set concerns Leptochloa chinensis. Put plainly: Test Example 3: herbicidal effect by foliage application, Wagner pot (symbol D). As to conditions: application herbicide amount 320 g/ha. The gist of the method: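 Seeds sown in alluvial soil kept under 0.1–0.5 cm water, greenhouse 25–30 °C; 14 d growth. Leaves treated by small sprayer with water-diluted emulsion at a predetermined rate. Effect graded by set scale, 3 weeks.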

The next data set deals with Digitaria ciliaris. In words: Test Example 4: herbicidal effect by soil treatment (symbol F). As to conditions: application herbicide amount 320 g/ha. The gist of the method: (§1)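 Seeds were sown in sterilized diluvial soil, covered with about 1.5 cm of soil, and the soil surface was sprayed with a water-diluted emulsion of the compound at a predetermined rate. Plants grew in a greenhouse at 25° C. to 30° C.; effects were scored visually 3 weeks after application.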

In data set [2] the test system is Echinochloa crus-galli var. crus-galli. In words: Test Example 4: herbicidal effect by soil treatment (symbol H). As to conditions: application herbicide amount 320 g/ha. The gist of the method:
as §1

Data set [3] relates to Avena fatua. In words: Test Example 4: herbicidal effect by soil treatment (symbol I). As to conditions: application herbicide amount 320 g/ha. The gist of the method: as §1
The next data set concerns Lolium multiflorum Lam. In words: Test Example 4: herbicidal effect by soil treatment (symbol K). The conditions noted are these: application herbicide amount 320 g/ha. The gist of the method: as §1
Data set [4] has as its system Chenopodium album. Put plainly: Test Example 4: herbicidal effect by soil treatment (symbol O). As to conditions: application herbicide amount 320 g/ha. The gist of the method:
as §1

Data set [5] has as its system Veronica persica. Put plainly: Test Example 4: herbicidal effect by soil treatment (symbol R). The conditions noted are these: application herbicide amount 320 g/ha. The gist of the method: as §1
The test system of the next data set is Setaria viridis. Put plainly: Test Example 5: herbicidal effect by foliage application, plastic box (symbol G). The conditions noted are these: 320 g/ha, 3 weeks after application. The method, boiled down: (§2)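 Herbicide, formulated as an emulsion and diluted in water, is sprayed onto the aerial parts of 14-day seedlings. These were grown at 25° C. to 30° C. in sterilized diluvial soil; effects are graded after 3 weeks.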

Data set [6] concerns Avena fatua. In words: Test Example 5: herbicidal effect by foliage application, plastic box (symbol I). The conditions noted are these: 320 g/ha, 3 weeks after application. The gist of the method: as §2
In data set [7] the test system is Chenopodium album. Put plainly: Test Example 5: herbicidal effect by foliage application, plastic box (symbol O). The conditions noted are these: 320 g/ha, 3 weeks after application. The gist of the method:
as §2

Data set [8] concerns Veronica persica. Put plainly: Test Example 5: herbicidal effect by foliage application, plastic box (symbol R). The conditions noted are these: 320 g/ha, 3 weeks after application. The gist of the method: as §2
Another data set concerns corn. Put plainly: Test Example 5: effect on crop by foliage application, plastic box (symbol c). The conditions noted are these: 320 g/ha, 3 weeks after application. The gist of the method: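 A greenhouse held between 25° C. and 30° C. was used to grow plants sown spot-wise, beneath ~1.5 cm of soil, in boxes of sterilized diluvial soil.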

As for `CON=C(C)CC1CC(OC(=O)N2CCCC2)=C(c2c(C)cc(C)cc2OC)C1=O` (stereo not drawn) [6-110], the “Effect grade on crop, a: transplanted rice plant” value (shortened to “Effect grade on crop”) with transplanted rice plant is given as 5 (Herbicidal ratio of 90% or more (almost completely withered)). For the same compound, the “Herbicidal effect grade, A: Echinochloa oryzacola Vasing.” value in data set [1] is 5 (Herbicidal ratio of 90% or more (almost completely withered)). For the same compound, in the data set on Leptochloa chinensis, the “herbicidal effect on D (Leptochloa chinensis), grade 0-5” value (from here on “herbicidal effect on D”) is on record as 5 (Herbicidal ratio of 90% or more (almost completely withered)). Besides, in the data set on Digitaria ciliaris, the “Herbicidal effect grade, F: Digitaria ciliaris” value is given as 0 (Herbicidal ratio of 5% or lower (almost no effect)). Also, the “Herbicidal effect grade, H: Echinochloa crus-galli var. crus-galli” value in data set [2] is 5 (Herbicidal ratio of 90% or more (almost completely withered)). Also, in the data set on Avena fatua [3], the “Herbicidal effect grade, I: Avena fatua” value is 0 (Herbicidal ratio of 5% or lower (almost no effect)). The “Herbicidal effect grade, K: Lolium multiflorum Lam.” value with Lolium multiflorum Lam. is 3 (Herbicidal ratio of 40% or higher and lower than 70%). Moreover, the “Herbicidal effect grade, O: Chenopodium album” value in the data set with Chenopodium album [4] is 0 (Herbicidal ratio of 5% or lower (almost no effect)). For the same compound, the “Herbicidal effect grade, R: Veronica persica” value with Veronica persica [5] is listed as 0 (Herbicidal ratio of 5% or lower (almost no effect)). Further, in the data set with Setaria viridis, the “G: Setaria viridis, herbicidal effect (criteria of Test Example 1)” value (shortened to “G: Setaria viridis, herbicidal effect”) is recorded as 5 (Herbicidal ratio of 90% or more (almost completely withered)). Moreover, the “I: Avena fatua, herbicidal effect (criteria of Test Example 1)” value with Avena fatua [6] is on record as 5 (Herbicidal ratio of 90% or more (almost completely withered)). The “O: Chenopodium album, herbicidal effect (criteria of Test Example 1)” value in the data set with Chenopodium album [7] is on record as 0 (Herbicidal ratio of 5% or lower (almost no effect)). Moreover, the “R: Veronica persica, herbicidal effect (criteria of Test Example 1)” value in the data set on Veronica persica [8] is 2 (Herbicidal ratio of 20% or higher and lower than 40%). In addition, in the data set on corn, the “c: corn, effect on crop (criteria of Test Example 1)” value (“c: corn, effect on crop” for short) is recorded as 5 (Herbicidal ratio of 90% or more (almost completely withered)).
Consider `CON=C(C)CC1CC(OC(=O)N2CCOCC2)=C(c2c(C)cc(-c3ccc(F)cc3)cc2C)C1=O` (mixture of isomers) [6-059], for which the “Effect grade on crop” value in the data set on transplanted rice plant is 5 (Herbicidal ratio of 90% or more (almost completely withered)). Moreover, the “Herbicidal effect grade, A: Echinochloa oryzacola Vasing.” value in data set [1] is given as 5 (Herbicidal ratio of 90% or more (almost completely withered)). Besides, the “herbicidal effect on D” value in the data set with Leptochloa chinensis is on record as 5 (Herbicidal ratio of 90% or more (almost completely withered)). Moreover, in the data set with Digitaria ciliaris, the “F: Digitaria ciliaris, herbicidal effect grade” value is on record as 5 (Herbicidal ratio of 90% or more (almost completely withered)). For the same compound, the “H: Echinochloa crus-galli var. crus-galli, herbicidal effect grade” value in [2] was 2 (Herbicidal ratio of 20% or higher and lower than 40%). Moreover, in the data set with Avena fatua [3], the “I: Avena fatua, herbicidal effect grade” value was 3 (Herbicidal ratio of 40% or higher and lower than 70%). Moreover, in the data set with Lolium multiflorum Lam., the “K: Lolium multiflorum Lam., herbicidal effect grade” value is 1 (Herbicidal ratio of 5% or higher and lower than 20%). The “O: Chenopodium album, herbicidal effect grade” value in the data set on Chenopodium album [4] was 0 (Herbicidal ratio of 5% or lower (almost no effect)). Moreover, the “R: Veronica persica, herbicidal effect grade” value with Veronica persica [5] is 3 (Herbicidal ratio of 40% or higher and lower than 70%). In the data set with Setaria viridis, the “G: Setaria viridis, herbicidal effect” value was 5 (Herbicidal ratio of 90% or more (almost completely withered)). The “I: Avena fatua, herbicidal effect (criteria of Test Example 1)” value with Avena fatua [6] is 5 (Herbicidal ratio of 90% or more (almost completely withered)). The “O: Chenopodium album, herbicidal effect (criteria of Test Example 1)” value in the data set on Chenopodium album [7] is reported as 5 (Herbicidal ratio of 90% or more (almost completely withered)). In the data set with Veronica persica [8], the “R: Veronica persica, herbicidal effect (criteria of Test Example 1)” value was 5 (Herbicidal ratio of 90% or more (almost completely withered)). Also, the “c: corn, effect on crop” value in the data set on corn was 5 (Herbicidal ratio of 90% or more (almost completely withered)).
As to `CON=C(C)CC1CC(O)=C(c2c(C)cc(Br)cc2OC)C1=O` (stereo not drawn) [6-076, 2-(4-bromo-2-methoxy-6-methylphenyl)-3-hydroxy-5-{2-(methoxyimino)propyl}cyclopent-2-enone], in the data set with transplanted rice plant, the “Effect grade on crop” value is reported as 5 (Herbicidal ratio of 90% or more (almost completely withered)). The “Herbicidal effect grade, A: Echinochloa oryzacola Vasing.” value in data set [1] is on record as 5 (Herbicidal ratio of 90% or more (almost completely withered)). The “herbicidal effect on D” value in the data set with Leptochloa chinensis is 5 (Herbicidal ratio of 90% or more (almost completely withered)). The “F: Digitaria ciliaris, herbicidal effect grade” value with Digitaria ciliaris is listed as 5 (Herbicidal ratio of 90% or more (almost completely withered)). In [2], the “H: Echinochloa crus-galli var. crus-galli, herbicidal effect grade” value is recorded as 5 (Herbicidal ratio of 90% or more (almost completely withered)). Moreover, the “I: Avena fatua, herbicidal effect grade” value with Avena fatua [3] is 3 (Herbicidal ratio of 40% or higher and lower than 70%). The “K: Lolium multiflorum Lam., herbicidal effect grade” value in the data set on Lolium multiflorum Lam. is recorded as 5 (Herbicidal ratio of 90% or more (almost completely withered)). Further, the “O: Chenopodium album, herbicidal effect grade” value in the data set on Chenopodium album [4] is reported as 0 (Herbicidal ratio of 5% or lower (almost no effect)). The “R: Veronica persica, herbicidal effect grade” value with Veronica persica [5] is 0 (Herbicidal ratio of 5% or lower (almost no effect)). Further, the “G: Setaria viridis, herbicidal effect” value with Setaria viridis is 5 (Herbicidal ratio of 90% or more (almost completely withered)). Further, the “I: Avena fatua, herbicidal effect (criteria of Test Example 1)” value in the data set with Avena fatua [6] is recorded as 5 (Herbicidal ratio of 90% or more (almost completely withered)). Moreover, the “O: Chenopodium album, herbicidal effect (criteria of Test Example 1)” value with Chenopodium album [7] is 2 (Herbicidal ratio of 20% or higher and lower than 40%). In the data set on Veronica persica [8], the “R: Veronica persica, herbicidal effect (criteria of Test Example 1)” value is 2 (Herbicidal ratio of 20% or higher and lower than 40%). The “c: corn, effect on crop” value in the data set with corn is listed as 5 (Herbicidal ratio of 90% or more (almost completely withered)).

Values taken from patent US11000033B2, “Ketone or oxime compound, and herbicide” (NISSAN CHEMICAL CORPORATION, priority 2014, dated 2021).
